Results from ChEMBL document CHEMBL4425181, “Synthesis and antileishmanial activity of the core structure of cristaxenicin A” (Bioorg Med Chem Lett, 2016).

Columns and labels:
Type in all cases: functional, organism-based
Trypanosoma congolense = experiment: Antitrypanosomal activity against Trypanosoma congolense IL3000 incubated for 48 hrs measured after 4 hrs
Leishmania amazonensis = experiment: Antileishmanial activity against Leishmania amazonensis promastigotes after 72 hrs by EGFP-reporter gene based fluorescence assay
Leishmania donovani = experiment: Antileishmanial activity against Leishmania donovani MHOM/NP/03/D10 promastigotes after 72 hrs by EGFP-reporter gene based fluorescence assay; details: MHOM/NP/03/D10, 72 h

Row | SMILES | IC50 (Trypanosoma congolense) [nM] | IC50 (Leishmania amazonensis) [nM] | IC50 (Leishmania donovani) [nM]
1 | CC(=O)O/C=C1\CCC/C(C=O)=C\C[C@@H]2C(C(=O)CC=C(C)C)=CO[C@H](OC(C)=O)[C@@H]12 | 250 | 88 | –
2 | CO[C@H]1OC=C(C(=O)OC(C)C)[C@H]2C/C=C(/C=O)CCCC(=O)[C@H]12 | – | – | 2400
